# Assay results as given in article PMC9413514, “Accessing Lipophilicity and Biomimetic Chromatography Profile of Biologically Active Ingredients of Botanicals Used in the Treatment of Inflammatory Bowel Disease” (Pharmaceuticals, 2022).
# System: not listed separately
# Experiment: Miniaturized shake-flask method (n-octanol/PBS pH 7.4) with HPLC analysis
# Assay type: physicochemical
# Conditions: compared to andrographolide
# Method: Stock solution of biologically active ingredients of botanicals used in IBD treatment were prepared using dimethylsulfoxide in concentration of 2 mg/mL. Working solutions were prepared daily by dilution of the stock solutions with PBS (20 mM, pH 7.4) pre-saturated with n-octanol. Before the injection into the HPLC system all solutions were sonicated for 15 min at room temperature in Elmasonic XtraTT (Elma Schmidbauer, Singen, Germany) and filtered through 0.2 μm polyethersulfone filters (Obrnuta faza, Pazin, Croatia).
# The pre-saturated solutions of n-octanol and PBS (20 mM, pH 7.4) were used for determination of logarithm of distribution coefficient (log D7.4). The n-octanol and aqueous phase (mixture 1:1, v/v) were mutually saturated for 24 h in an orbital shaker-incubator ES-20/60 (Biosan, Riga, Latvia) at 100 oscillations per min at 25.0 ± 0.1 °C. The prepared mixture was left resting for at least 12 h in the thermostat at 25.0 ± 0.1 °C to ensure complete separation of the two phases. Until analysis, separated saturated solutions were kept in refrigerator at 4 °C.
# Shake-flask procedure was conducted in amber 2 mL HPLC vials. 300 μL of the working solution was added to 1500 μL of n-octanol pre-saturated with PBS. To prevent material loss due to volatilisation, the two-phase system nearly filled the entire volume of the test vessels. All n-octanol–buffer mixtures were first vortexed for 1 min and then shaken for 1 h (150 oscillations per min) at room temperature (25.0 ± 0.1 °C) to reach equilibrium and phase distribution. Afterward, the samples were centrifuged using a Z 326 K tabletop centrifuge (HERMLE Labortechnik, Wehingen, Germany) for 30 min at 4000× g and 25 °C to ensure that possible emulsions were removed.
# After equilibration and phase separation, the aqueous phase of all samples was analysed on an Agilent HPLC 1100 (Agilent Technologies, Waldbronn, Germany) with diode array detection. Analysis was conducted with a Zorbax SB C18 column (length 150 mm, i.d. 4.6 mm, particle size 5 μm) by Agilent Technologies. 10 min chromatographic runs were performed at 25.0 ± 0.1 °C in isocratic mode using a methanol/water mixture (60/40, v/v) with addition of 0.1% of formic acid as mobile phase modifier at a flow rate of 1.0 mL/min. The mobile phase was filtered through a membrane filter, no. 66, diameter 47 mm, pore size 0.45 µm (Supelco, Bellefonte, PA, USA). The vials were placed in the rack on the autosampler at 25 °C. The injection volume was 10 µL, with a needle offset of 0.5 mm. To avoid any carryover of the analyte-containing n-octanol phase, the outside of the syringe was subsequently washed in methanol before injection. The absorbance of the analytes during a chromatographic run was collected in the spectral range 200–400 nm, and the detection wavelength for each analyte was the one providing the maximum peak height.
row,Structure (SMILES),Δ log D7.4 (increase compared to andrographolide)
1,"C=C1CC[C@@H]2[C@](C)(CO[C@@H]3O[C@H](CO)[C@@H](O)[C@H](O)[C@H]3O)CCC[C@@]2(C)[C@@H]1CCC1=CCOC1=O [Neoandrographolide, neoandrographolide]",0.19 units

# Same assay, conditions: compared to curcumin
row,Structure (SMILES),Δ log D7.4 (lower than curcumin)
1,"O=C(C=Cc1ccc(O)cc1)CC(=O)C=Cc1ccc(O)cc1 [Bisdemetoxycurcumin, bisdemetoxycurcumin]",0.22 units
2,"COc1cc(/C=C/C(=O)CC(=O)/C=C/c2ccc(O)cc2)ccc1O [Demetoxycurcumin, demetoxycurcumin]",0.42 units

# Same assay, conditions: n-octanol/PBS 20 mM pH 7.4, 25 °C; spread is RSD in %; read-out: log D7.4 ± RSD (%) (n = 3)
row,Structure (SMILES),logD at 1 h
1,"C=C1CC[C@@H]2[C@](C)(CO)[C@H](O)CC[C@@]2(C)[C@@H]1C/C=C1/C(=O)OC[C@H]1O [Andrographolide, andrographolide]",1.32
2,"O=C(C=Cc1ccc(O)cc1)CC(=O)C=Cc1ccc(O)cc1 [Bisdemetoxycurcumin, bisdemetoxycurcumin]",1.72
3,"COc1cc(/C=C/C(=O)CC(=O)/C=C/c2ccc(O)cc2)ccc1O [Demetoxycurcumin, demetoxycurcumin]",1.52
4,"C=C1CC[C@@H]2[C@](C)(CO[C@@H]3O[C@H](CO)[C@@H](O)[C@H](O)[C@H]3O)CCC[C@@]2(C)[C@@H]1CCC1=CCOC1=O [Neoandrographolide, neoandrographolide]",1.51
5,"O=C(/C=C/C=C/c1ccc2c(c1)OCO2)N1CCCCC1 [Piperine, piperine]",1.67

# System: α1-acid glycoprotein (AGP)
# Experiment: AGP-HPAC assay (plasma protein binding)
# Assay type: in vitro ADME
# Conditions: Chiralpak-AGP, pH 7.4, 25 °C; spread is RSD in %
# Source text: The gradient retention times obtained by HSA-HPAC and AGP-HPAC assays were standardized using a calibration set of compounds with known percentage of plasma protein binding data and procedure described in our previously published study. […] This verification assured that the protein affinity indices obtained by HPAC assays depict not only unspecific generally lipophilicity-driven interactions, but also highly specific recognition forces responsible of enantioselectivity.
# (§1) Stock solutions of analytes and calibration standards were prepared by dissolving 10 mg of each solute in 10 mL of methanol and kept at 4 °C. Working solutions were freshly prepared at the beginning of each day by dilution of the stock solutions to 100 μg/mL with methanol for TLC measurements or mobile phase for HPLC measurements. Before use, the samples were sonicated (Elmasonic XtraTT, Elma Schmidbauer) for 10 min at 25 °C and all working solutions were filtered through 0.2 µm polyethersulfone filters (Obrnuta faza). To protect analytes from photodegradation, the amber glass HPLC vials were used.
# The binding of biologically active compounds to the plasma proteins was investigated using affinity chromatographic columns by ChromTech (Cedex, France) containing immobilized human serum albumin (HSA) (Chiralpak-HSA, length 50 mm, i.d. 4.6 mm, particle size 5 µm) and α1-acid glycoprotein (AGP) (Chiralpak-AGP, length 50 mm, i.d. 4.6 mm, particle size 5 µm) and Agilent HPLC 1100 instrument. The 20 mM potassium phosphate buffer with the pH adjusted to 7.4 and iso-propanol were used as mobile phase components A and B. Retention data were collected at 25.0 ± 0.1 °C using gradient program as follows: 0 min/0% B, 6 min/30% B, 15 min/30% B and 20 min/0% B. Injection volume was set at 10 µL and the measurements were carried out at 25.0 ± 0.1 °C with flow rate of 1.5 mL/min. The absorbance of the analytes during a chromatographic run was collected in the spectral range 200–400 nm, and the detection wavelength for each analyte was the one providing the maximum peak height.
row,Structure (SMILES),AGP Binding ± RSD (%) (n = 3)
1,"C=C1CC[C@@H]2[C@](C)(CO)[C@H](O)CC[C@@]2(C)[C@@H]1C/C=C1/C(=O)OC[C@H]1O [Andrographolide, andrographolide]",37.13 ± 1.11%
2,"O=C(C=Cc1ccc(O)cc1)CC(=O)C=Cc1ccc(O)cc1 [Bisdemetoxycurcumin, bisdemetoxycurcumin]",83.14 ± 1.15%
3,"COc1cc(/C=C/C(=O)CC(=O)/C=C/c2ccc(O)cc2)ccc1O [Demetoxycurcumin, demetoxycurcumin]",82.92 ± 1.15%
4,"C=C1CC[C@@H]2[C@](C)(CO[C@@H]3O[C@H](CO)[C@@H](O)[C@H](O)[C@H]3O)CCC[C@@]2(C)[C@@H]1CCC1=CCOC1=O [Neoandrographolide, neoandrographolide]",64.95 ± 0.41%
5,"O=C(/C=C/C=C/c1ccc2c(c1)OCO2)N1CCCCC1 [Piperine, piperine]",71.98 ± 1.33%

# System: not listed separately
# Experiment: IAM-HPLC assay (lipophilicity, affinity to phospholipids)
# Assay type: physicochemical
# Conditions: IAM P.C.DD2 column, PBS pH 7.4/methanol, extrapolated to zero organic modifier
# Method: IAM columns provide potential to simulate membrane permeability since the amphiphilic character of phospholipid functional groups plays an important role in IAM retention especially when charged molecules are analysed.
# as §1
# C18-HPLC assay was carried out at Agilent HPLC 1100 and Zorbax SB C18 chromatographic column (length 250 mm.6 mm, particle size 5 µm) by Agilent Technologies, while IAM-HPLC assay was conducted using IAM P.C.DD2 chromatographic column (length 50 mm, i.d. 3.0 mm, particle size […]) by Regis Technologies (Morton Grove, IL, USA). Retention data were collected at 25.0 ± 0.1 °C using isocratic method working with mobile phases, mixing the respective amounts of PBS (10 mM, pH 7.4) and methanol from 35% to 80% of organic solvent in 5% increment. Each mobile phase was shaken vigorously and filtrated through membrane filter, no. 66, diameter 47 mm, pore size 0.45 µm by Supelco and degassed by sonication 5 min before use. The injection volume was set at 10 µL, and the measurements were carried out at flow rate 1.0 mL/min. Natrium nitrate solution (0.1 mg/mL in mobile phase) was used as the marker of dead-time. The absorbance of the analytes during a chromatographic run was collected in the spectral range of 200–400 nm, and the detection wavelength for each analyte was the one providing the maximum peak height.
row,Structure (SMILES),"logk0 IAM (HPLC lipophilicity index, intercept of linear equation)"
1,"C=C1CC[C@@H]2[C@](C)(CO)[C@H](O)CC[C@@]2(C)[C@@H]1C/C=C1/C(=O)OC[C@H]1O [Andrographolide, andrographolide]",y = −0.0464 x + 2.2763
2,"O=C(C=Cc1ccc(O)cc1)CC(=O)C=Cc1ccc(O)cc1 [Bisdemetoxycurcumin, bisdemetoxycurcumin]",y = −0.0568 x + 4.6386
3,"COc1cc(/C=C/C(=O)CC(=O)/C=C/c2ccc(O)cc2)ccc1O [Demetoxycurcumin, demetoxycurcumin]",y = −0.0555 x + 4.4229
4,"C=C1CC[C@@H]2[C@](C)(CO[C@@H]3O[C@H](CO)[C@@H](O)[C@H](O)[C@H]3O)CCC[C@@]2(C)[C@@H]1CCC1=CCOC1=O [Neoandrographolide, neoandrographolide]",y = −0.0620 x + 3.4572
5,"O=C(/C=C/C=C/c1ccc2c(c1)OCO2)N1CCCCC1 [Piperine, piperine]",y = −0.0512 x + 3.2026

# Same assay, conditions: compared to andrographolide
row,Structure (SMILES),difference in logk0 IAM values versus andrographolide
1,"C=C1CC[C@@H]2[C@](C)(CO[C@@H]3O[C@H](CO)[C@@H](O)[C@H](O)[C@H]3O)CCC[C@@]2(C)[C@@H]1CCC1=CCOC1=O [Neoandrographolide, neoandrographolide]",1.18 units
